Results published in the NIST ThermoML archive (doi:10.1021/je800463k).

Experiment: mn = molality of the nth substance listed, in mol/kg
Conditions: 101 kPa, Liquid; for electrical conductivity: Frequency=0.001 MHz, Alternating current cell with electrodes; for speed of sound: Frequency=2 MHz

O=[N+]([O-])[O-].O=[N+]([O-])[O-].[Mg+2] [magnesium nitrate] + CO
Conditions | electrical conductivity, 273.15 K [S/m] | electrical conductivity, 278.15 K [S/m] | electrical conductivity, 283.15 K [S/m] | electrical conductivity, 288.15 K [S/m] | speed of sound, 273.15 K [m/s] | speed of sound, 278.15 K [m/s] | speed of sound, 283.15 K [m/s] | viscosity, 273.15 K [mPa·s] | viscosity, 278.15 K [mPa·s] | viscosity, 283.15 K [mPa·s]
m1 = 0.0082 | 0.1095 | 0.1165 | 0.1221 | 0.1281 | 1187.6 | 1171.2 | 1158.5 | 0.8298 | 0.7627 | 0.7006
m1 = 0.0545 | 0.3036 | 0.321 | 0.3368 | 0.3616 | 1194.3 | 1178.6 | 1163.6 | 0.8885 | 0.8108 | 0.7465
m1 = 0.0667 | 0.3337 | 0.3538 | 0.3738 | – | 1197.6 | 1181.3 | 1164.3 | 0.9109 | 0.836 | 0.775
m1 = 0.1047 | 0.4393 | 0.4655 | 0.4908 | – | 1202.4 | 1185.8 | 1168.9 | 0.9548 | 0.8755 | 0.8049
m1 = 0.2776 | 0.8097 | 0.8637 | 0.9168 | – | 1220.4 | 1203 | 1187.4 | 1.129 | 1.029 | 0.9437
m1 = 0.4024 | 1.002 | 1.073 | 1.143 | – | 1228.8 | 1214.1 | 1198.4 | 1.336 | 1.213 | 1.109
m1 = 0.4555 | 1.043 | 1.117 | 1.192 | – | 1237 | 1222.1 | 1204.7 | 1.4 | 1.273 | 1.158
m1 = 0.6276 | 1.207 | 1.3 | 1.394 | – | 1253.3 | 1235.6 | 1219.1 | 1.836 | 1.732 | 1.562
m1 = 0.782 | 1.31 | 1.417 | 1.528 | – | 1270.9 | 1254.4 | 1238.3 | 2.128 | 1.905 | 1.719
m1 = 0.881 | 1.334 | 1.447 | 1.561 | – | 1274.9 | 1257.8 | 1241 | 2.18 | 1.938 | 1.743
m1 = 0.9116 | 1.344 | 1.459 | 1.573 | – | 1279.9 | 1263.2 | 1247.8 | 2.329 | 2.079 | 1.866
m1 = 1.004 | 1.372 | 1.494 | 1.618 | – | 1293.4 | 1277.2 | 1261.1 | 2.559 | 2.278 | 2.041
m1 = 1.259 | 1.361 | 1.494 | 1.632 | – | 1315.8 | 1298.8 | 1282.7 | 3.717 | 3.26 | 2.891
m1 = 1.492 | 1.314 | 1.453 | 1.597 | – | 1340.4 | 1324.8 | 1308.1 | 4.748 | 4.119 | 3.619
m1 = 1.71 | 1.281 | 1.436 | 1.59 | – | 1360.5 | 1343.7 | 1327.3 | 6.086 | 5.244 | 4.554
m1 = 1.875 | 1.238 | 1.383 | 1.538 | – | 1368.6 | 1352.5 | 1335.4 | 7.175 | 6.178 | 5.339
